Experimental data reported in publication PMC5349656, “Characterization of Hedgehog Acyltransferase Inhibitors Identifies a Small Molecule Probe for Hedgehog Signaling by Cancer Cells” (ACS Chemical Biology, 2016).

Columns and labels:
[1] = molecular target: T1, Hedgehog acyltransferase (Hhat) (Homo sapiens, UniProt Q5VTY9); assay: YnPal palmitoylation profiling in cells by quantitative proteomics; type: cell-based
[2] = molecular target: T1, Hedgehog acyltransferase (Hhat); assay: YnPal palmitoylation tagging in HEK-293 Shh+ cells, spike-in SILAC quantitative proteomics (Western blot TC50 […]); type: cell-based

T1 sequence (Q5VTY9 whole entry): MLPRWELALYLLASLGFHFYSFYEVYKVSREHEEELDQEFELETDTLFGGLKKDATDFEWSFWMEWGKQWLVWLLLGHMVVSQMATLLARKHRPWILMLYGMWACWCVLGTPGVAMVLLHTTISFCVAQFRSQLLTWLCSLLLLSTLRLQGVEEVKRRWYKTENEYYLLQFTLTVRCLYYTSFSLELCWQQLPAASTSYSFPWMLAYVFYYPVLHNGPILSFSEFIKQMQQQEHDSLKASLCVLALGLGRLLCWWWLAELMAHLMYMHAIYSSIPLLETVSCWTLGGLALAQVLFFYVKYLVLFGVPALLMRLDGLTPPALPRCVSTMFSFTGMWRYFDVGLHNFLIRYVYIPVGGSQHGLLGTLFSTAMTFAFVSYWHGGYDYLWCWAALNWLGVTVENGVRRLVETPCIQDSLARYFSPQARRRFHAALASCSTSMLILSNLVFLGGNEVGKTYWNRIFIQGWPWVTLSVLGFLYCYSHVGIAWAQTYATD

SMILES	YnPal palmitoylation profiling in cells by quantitative proteomics [1]	IC50 [2]
C=CCNCC(=O)N1CCc2sccc2C1COc1ccc(Cl)cc1 (centres unmarked) [RUSKI-41]	RUSKI-41 also inhibited only Hh palmitoylation (Supporting Information Figure S6, Table S2)	–
CCC(C)CNCC(=O)N1CCc2sccc2C1c1cccc(C)n1 (racemic) [RUSKI-201]	–	730 ± 90 nM
